Measurements from patent publication US20100093655A1 (priority 2007, published 2010).
Like-named read-outs stand apart in the source and are kept apart here. Marks after values point to notes of the source that are not given here.

Assays:
HIV-1 proviral DNA = assay: Proviral DNA, modified Muprovama test; conditions: for Proviral DNA Number of copies/10^6 cells: after 6 days (day 12-18); for Log of proviral HIV DNA: riluzole 0.1 μM (+), mean ± S.D.
HIV-1 = conditions: for Viral RNA Number of copies/ml: after 6 days (day 12-18); for viral RNA expressed, more than the control: patient two, no therapy
[1] = system: lymphocytes of patients suffering from AIDS; type: cell-based, human; conditions: for Cell survival rate (×100%): day 18 vs day 12
[2] = system: lymphocytes of patients suffering from AIDS; type: cell-based, human; conditions: after 6 days (day 12-18)
NB4 line = assay: Inhibition of tumor cell proliferation; type: cell-based; conditions: NB4 line (FIG. 9c)
Description: (§1) After 5 days, the proliferation of the cells is estimated by tritiated (3H) thymidine incorporation. Other tumor lines were used, namely the H9 line (T lymphoma), the NB4 line (line derived from an acute promyelocytic leukemia) and the Jurkat line (T-lymphoma-derived lymphoblastic T cell line).

H9 line = assay: Inhibition of tumor cell proliferation; type: cell-based; conditions: H9 line (FIG. 9d)
Description: as §1

Jurkat line = assay: Inhibition of tumor cell proliferation; type: cell-based; conditions: Jurkat line (FIG. 9b)
Description: as §1

interferon-β gene = assay: Detection of cytokines by real-time PCR; type: cell-based; conditions: real-time PCR (FIG. 8)
Procedure: (§2) Using real-time PCR, 2 μg of total RNA is first reverse-transcribed by means of a kit (High Capacity cDNA Archive kit PN: 4322171, Applied Biosystems, Foster City, Calif.) using random primers and the MultiScribe RT enzyme (5 U/μl) for 2 hours at 37° C. The method of labeling with a SYBR Green, a fluorescent molecule which intercalates into the minor groove of the double helix, was used. The reaction is carried out using a thermocycler (ABI prism 7900 HT, Applied Biosystems, Foster City, Calif.). Each point studied was composed of 5 μl of SYBR Green PCR Master Mix (PN:4344463; Applied Biosystems, Foster City, Calif.), 0.3 μl of sense and antisense primer at a concentration of 10 μM (Proligo), 3.4 μl of Rnase-free water and 1 μl of cDNA. After a denaturation step at 95° C. for 15 min, the amplification is carried out after 40 cycles at 95° C. for 15 s, 60° C. for 30 s and 72° C. for 30 s. At the end of the PCR, a dissociation step corresponding to the amplification peak, which takes place in a cycle of 95° C. for 15 s, 60° C. for 15 s and 95° C. for 15 s, verifies the validity of the primers. The primers for all the genes studied were chosen according to the Oligo Explorer 1.1 amplification conditions. The samples were studied in duplicate in the presence of a negative control, composed of Master Mix and the primers, but without the cDNA. Glyceraldehyde phosphate dehydrogenase (GAPDH) was used as endogenous control gene.
(§3) The effect of the treatments on the levels of mRNA of interest is studied using the method of comparison of CTs (Peinnequin et al., 2004) or number of cycles necessary to reach a threshold fluorescence value (software SDS 2.1, AB prism).
(§4) The sequences of the primers used are the following (Proligo LLC, Boulder, Colo., USA) (forward-reverse): […]

IL-15 gene = assay: Detection of cytokines by real-time PCR; type: cell-based; conditions: real-time PCR (FIG. 8)
Procedure: as §2, §3, §4

interferon-α gene = assay: Detection of cytokines by real-time PCR; type: cell-based; conditions: real-time PCR (FIG. 8)
Procedure: as §2, §3, §4

Toll receptor 3 gene = assay: Detection of cytokines by real-time PCR; type: cell-based; conditions: real-time PCR (FIG. 8)
Procedure: as §2, §3, §4

IL-15 = assay: Measurement of interleukin-15 production (ELISA of supernatant); type: cell-based; conditions: riluzole 10^-8 M, culture supernatant, without riluzole 1
[3] = system: TG 180 line (Crocker sarcoma tumor); assay: Inhibition of tumor cell proliferation (3H thymidine incorporation); type: cell-based; conditions: 120 h, 5 days (FIG. 9a)
Description: as §1

[4] = system: lymphocytes of a patient suffering from AIDS; assay: Apoptosis test (annexin V / propidium iodide, flow cytometry); type: cell-based, human; conditions: after 13 days; 10^-7-10^-8 M
Procedure: The apoptotic cells were measured using propidium iodide and FITC-labeled annexin V, which is a phospholipid-binding protein that binds preferentially to the phosphatidylserine exposed at the surface of the cells in the initial phase of apoptosis, by means of a commercially available kit (Immunotech, Marseille, France). The cells that were propidium-iodide-negative and annexin-V-positive were identified as being apoptotic cells, whereas those that were positive for both propidium iodide and annexin V were considered to be pre-necrotic cells. […] Counting of T cells having CD4+ and CD8+ phenotypes, of the Ki-67 activation marker and of annexin V was carried out by flow cytometry analysis (FACScan, Becton Dickenson, San José, Calif., USA). A series of monoclonal antibodies directed against the following surface markers of T cells was used: CD4-PerCP, CD8-PE (Becton Dickinson, France), Ki-67-FITC (Pharmingen, Los Angeles, Calif., USA), Annexin-FITC (Immunotech, Marseille, France).

FAS (CD95/APO-1) = assay: Apoptosis induced by the anti-FAS antibody (annexin V expression); type: cell-based, human; conditions: lymphocytes of patient two
Procedure: The apoptotic cells were measured using propidium iodide and FITC-labeled annexin V, which is a phospholipid-binding protein that binds preferentially to the phosphatidylserine exposed at the surface of the cells in the initial phase of apoptosis, by means of a commercially available kit (Immunotech, Marseille, France). The cells that were propidium-iodide-negative and annexin-V-positive were identified as being apoptotic cells, whereas those that were positive for both propidium iodide and annexin V were considered to be pre-necrotic cells. The apoptosis caused by the anti-FAS monoclonal antibody (CD95/APO-1) (Immunotech, Marseille, France) was thus measured since it is well known that Fas/Fas ligand apoptosis is amplified in AIDS disease.
Counting of T cells having CD4+ and CD8+ phenotypes, of the Ki-67 activation marker and of annexin V was carried out by flow cytometry analysis (FACScan, Becton Dickenson, San José, Calif., USA). A series of monoclonal antibodies directed against the following surface markers of T cells was used: CD4-PerCP, CD8-PE (Becton Dickinson, France), Ki-67-FITC (Pharmingen, Los Angeles, Calif., USA), Annexin-FITC (Immunotech, Marseille, France).
As indicated above, it is well established that the lymphocytes of HIV-1-infected patients are sensitive to apoptosis induced by the expression of FAS (CD95/APO-1) and of its agonist, the anti-FAS antibody.

Ki-67 antigen = assay: Expression of the Ki-67 antigen (flow cytometry); type: cell-based, human

## Cc1cn([C@H]2C[C@H](N=[N+]=[N-])[C@@H](CO)O2)c(=O)[nH]c1=O [AZT]
HIV-1 proviral DNA; Individual AR, AZT 1 μg/ml
  Proviral DNA Number of copies/10^6 cells: 6.1 Log copies/10^6 cells
HIV-1 proviral DNA; Individual AR, AZT 10 μg/ml
  Proviral DNA Number of copies/10^6 cells: 5.4 Log copies/10^6 cells
HIV-1 proviral DNA; Individual PR, AZT 1 μg/ml
  Proviral DNA Number of copies/10^6 cells: 4.9 Log copies/10^6 cells
HIV-1 proviral DNA; Individual PR, AZT 10 μg/ml
  Proviral DNA Number of copies/10^6 cells: 4.8 Log copies/10^6 cells
HIV-1; AZT 1 μg/ml
  antiviral effect on the control cells: partial, or even equivalent
HIV-1; AZT 10 μg/ml
  antiviral effect: exerts an antiviral effect
HIV-1; Individual AR, AZT 1 μg/ml
  Viral RNA Number of copies/ml: 35 000 copies/ml
HIV-1; Individual AR, AZT 10 μg/ml
  Viral RNA Number of copies/ml: <100 copies/ml
HIV-1; Individual PR, AZT 1 μg/ml
  Viral RNA Number of copies/ml: 7000 copies/ml
HIV-1; Individual PR, AZT 10 μg/ml
  Viral RNA Number of copies/ml: <100 copies/ml
[1]; AZT 10 μg/ml
  effect on proliferation of the control cells: suppressor (antiproliferative) effect
[1]; Individual AR, AZT 1 μg/ml
  Cell survival rate (×100%): 5 ×100%
[1]; Individual AR, AZT 10 μg/ml
  Cell survival rate (×100%): 4 ×100%
[1]; Individual PE, AZT 10 μg/ml
  Cell survival rate (×100%): 3 ×100%
[1]; Individual PR, AZT 1 μg/ml
  Cell survival rate (×100%): 12 ×100%
[1]; Individual PR, AZT 10 μg/ml
  Cell survival rate (×100%): 13 ×100%
[1]; Individual beta, AZT 1 μg/ml
  Cell survival rate (×100%): 3 ×100%
[2]; Individual AR, AZT 1 μg/ml
  Viability % dead cells: 28%
[2]; Individual AR, AZT 10 μg/ml
  Viability % dead cells: 25%
[2]; Individual PR, AZT 1 μg/ml
  Viability % dead cells: 19%
[2]; Individual PR, AZT 10 μg/ml
  Viability % dead cells: 20%
[2]; Individual beta, AZT 1 μg/ml
  Viability % dead cells: 29%
[2]; Individual beta, AZT 10 μg/ml
  Viability % dead cells: 20%

## Nc1nc2ccc(OC(F)(F)F)cc2s1 [riluzole, 6-(trifluoromethoxy)-2-aminobenzothiazole]
NB4 line
  inhibition of the proliferation of tumor cells: inhibition of the proliferation of these tumor cells is also observed
H9 line
  inhibition of the proliferation of tumor cells: inhibition of the proliferation of these tumor cells is also observed
Jurkat line
  inhibition of the proliferation of tumor cells: inhibition of the proliferation of these tumor cells is also observed
HIV-1 proviral DNA; TT(+), V: 44.000, Day 3 of culture
  Log of proviral HIV DNA: 2 ± 0.3 Log copies [cp]/10^6 cells
HIV-1 proviral DNA; TT(+), V: 44.000, Day 6 of culture
  Log of proviral HIV DNA: 0.3 ± 0.1 Log copies [cp]/10^6 cells
HIV-1 proviral DNA; TT(+), V: 250, Day 3 of culture
  Log of proviral HIV DNA: 3 ± 0.2 Log copies [cp]/10^6 cells
HIV-1 proviral DNA; TT(+), V: 250, Day 6 of culture
  Log of proviral HIV DNA: 0.2 ± 0.1 Log copies [cp]/10^6 cells
HIV-1 proviral DNA; TT(−), V: 68.000, Day 3 of culture
  Log of proviral HIV DNA: 3.7 ± 0.2 Log copies [cp]/10^6 cells
HIV-1 proviral DNA; TT(−), V: 68.000, Day 6 of culture
  Log of proviral HIV DNA: 0.7 ± 0.1 Log copies [cp]/10^6 cells
interferon-β gene
  expression of the interferon-β gene: capable of inducing the expression
IL-15 gene
  expression of the IL-15 gene: capable of inducing the expression
interferon-α gene
  expression of the interferon-α gene: capable of inducing the expression
Toll receptor 3 gene
  expression of the Toll receptor 3 gene: capable of inducing the expression
HIV-1; patient one, 10^-7 M, days 3 and 6 of culture
  virus measurement versus control: virtually the same
HIV-1; patient one, 10^-7 M, days 10 and 13 (FIG. 1C)
  HIV-1 RNA of conditioned cultures versus controls: twice as high
HIV-1; day 13 (FIG. 3C)
  viral RNA expressed, more than the control: up to 0.7 log10
HIV-1; from the 6th day, doses 10^-8 M, 10^-7 M and 10^-8 M as printed
  viral RNA expressed, more than the control: 0.8 logn
HIV-1; untreated patient one, 10^-7 M, day 13 of culture
  HIV-1 RNA in culture supernatants, increase: 100%
IL-15
  production of IL-15: 6 pg/mL
IL-15; listed as Riluzole
  production of IL-15: 15* pg/ml
[3]; 10^-4 M
  inhibition at 100 µM: 86%
[3]; 10^-5 M (first mention)
  inhibition at 10 µM: 40%
[3]; 10^-5 M (second mention)
  inhibition at 10 µM: 30%
[4]
  inhibition of apoptosis of CD4 lymphocytes: 80%
  inhibition of apoptosis of CD8 lymphocytes: 70%
  inhibition of total apoptosis expressed by all the lymphocytes: 66%
FAS (CD95/APO-1); Homo sapiens, Lymphocyte, 10^-8 M
  inhibition at 0.01 µM: 62%
FAS (CD95/APO-1); 10^-8 M, control 50%
  apoptosis (annexin V expression) of cells coupled to anti-FAS antibody: 15%
FAS (CD95/APO-1); compared with the 62% inhibition with antibody
  percentage inhibition of apoptosis, cells cultured without anti-FAS antibody: comparable
Ki-67 antigen; after 13 days in the presence of riluzole (FIG. 6A)
  inhibition of Ki-67 antigen expression by all of the lymphocytes: ~33%
Ki-67 antigen; after 13 days in the presence of riluzole (FIG. 6B)
  inhibition of Ki-67 antigen expression by the CD8 lymphocytes: ~37%
Ki-67 antigen; after 13 days in the presence of riluzole (FIG. 6C)
  inhibition of Ki-67 antigen expression by the CD4 lymphocytes: ~50%
